The values that follow come from patent US20040254189A1, “Jnk inhibitors” (priority 2001, published 2004).

One data set has as its system TNF-α. The data set can be described thus: Increase in the amount of TNF-α in ear tissue of IgE-passively sensitized mouse after antigen (DNFB) stimulation. It counts as in vivo. To be noted: female BALB/c mice, p.o., eight hours after application of DNFB. Here is the method: Female BALB/c mice were passively sensitized systemically by intravenous administration of 0.25 ml of a 20-fold diluted anti-DNP monoclonal antibody. On the following day, skin reactions were induced by applying 10 μl of a 0.15% dinitrofluorobenzene solution (DNFB diluted with a 4:1 mixture of acetone and olive oil) to each side of both ears of mice. Eight hours after the application of DNFB, both ears were cut off and homogenized in 400 μl of PBS using Polytron and then centrifuged (15,000 rpm, 15 minutes, 4° C.). The resulting supernatant was used as a sample. The amount of TNF-α was determined using a commercially available ELISA kit. The amount of proteins in the sample was also determined, and the amount of TNF-α was calculated per mg of protein. A preliminary test was performed in which an auricle sample was taken at certain intervals after the application of the antigen, and a time course of the amount of TNF-α was observed. The drug was orally administered one hour before the application of DNFB.

In a further data set the test system is ERKs. The data set can be described thus: Western blot analysis of activated site-specific phosphorylation of ERKs in passively sensitized RBL-2H3 cells after antigen stimulation. The format is cell-based, rat. To be noted: ten minutes after antigen stimulation. Here is the method: (§1) Rat basophilic leukemia 2H3 (RBL-2H3) cells (JCRB0023 from Health Science Research Resources Bank) were seeded in a 6-well plate or a 60 mm dish (0.5×10^6 cells/ml) and sensitized with the anti-DNP-IgE antibody (1:2000) at 37° C. for 90 minutes, and then washed twice with a glucose/PIPES buffer. After the RBL-2H3 cells were incubated at 37° C. for 15 minutes in the presence of Compound A or DMSO (at a final concentration of 0.1%), DNP-BSA (at a final concentration of 3 ng/ml) was added, and further incubation was performed for 10 minutes. The cells were then washed twice with PBS on ice, the cells were harvested with a scraper in a cell extraction buffer for western blot analysis or kinase assay, and incubated on ice for 15 minutes, and centrifuged (14,500 rpm, 4° C., 15 minutes). The resulting supernatant was recovered.
(§2) Western Blot Analysis: The supernatant of the total protein extracted from the cells was separated by 10% SDS-PAGE. The proteins and phosphorylated proteins were detected by a chemiluminescence technique using an anti-PLCγ-1[pY783] phosphospecific antibody, an anti-PLCγ antibody, an anti-active JNK (pTPpY) antibody, an anti-phospho-MAPK (ERK1/2)(Thr202/[…]) antibody, an anti-phospho-p38MAPK (Thr180/Tyr182) antibody, an anti-p44/42MAP kinase antibody, and an anti-JNK antibody.

For another data set, the system named is JNK (JNK1 and JNK2). The data set can be described thus: Western blot analysis of activated site-specific phosphorylation of JNK in passively sensitized RBL-2H3 cells after antigen stimulation. It counts as cell-based, rat. Here is the method:
as §1, §2

In the next data set the test system is RBL-2H3 cells. The data set can be described thus: Western blot analysis of protein expression amount in RBL-2H3 cells. It counts as cell-based, rat. To be noted: treatment with Compound A. Here is the method:
as §1, §2

The subject of another data set is JNK. The data set is described as follows: JNK kinase assay on protein extract of treated RBL-2H3 cells with c-Jun(1-89) as substrate. The format is cell-based, rat. Particulars: 10^−5 to 10^−7 mol/l. The method, then: as §1
JNK Kinase Assay: The total protein extracted from the cells (250 μg) was incubated for 12 hours with gentle rocking with GST-c-Jun(1-89) sepharose beads (2 μg) at 4° C. After washing, a kinase buffer was used for replacement. ATP ([…]) was added to start the kinase reaction. After incubation was performed at 30° C. for 30 minutes, 10% SDS-PAGE was used for separation. The phosphorylated GST-c-Jun(1-89) was detected by a chemiluminescence technique using an anti-phospho-c-Jun antibody.

The test system of a further data set is p38MAPK. The data set can be described thus: Western blot analysis of activated site-specific phosphorylation of p38MAPK in passively sensitized RBL-2H3 cells after antigen stimulation. The format is cell-based, rat. Particulars: ten minutes after antigen stimulation. The method, then:
as §1, §2

The subject of the next data set is peritoneal mast cells. The data set is described as follows: Antigen stimulation-induced release of TNF-α from peritoneal mast cells of passively sensitized rat. Particulars: 10^−9 to 10^−5 mol/l, 60 minutes preincubation, two hours after DNP-BSA. The format is cell-based. The method, then:
Female Wistar rats were intraperitoneally administered 2 ml of an anti-DNP-IgE antibody (diluted 250-fold), and killed by exsanguination after 48 hours. 20 ml of a physiological mast cells medium (MCM) was injected into the abdominal cavity, and the lavage was recovered. The lavage was centrifuged at 50×g for seven minutes at 4° C. and then washed twice with MCM. Cells were suspended in 1 ml of a heparin-free MCM at a concentration of 1.25×10^5 cells/mL, and then CaCl2 was added (at a final concentration of 1 mmol/L). The resulting mixture was incubated with Compound A or DMSO (at a final concentration of 0.1%) at 37° C. for 60 minutes, and then DNP-BSA (at a final concentration of 30 ng/mL) was added, and further incubation was performed for two hours. Thereafter, the supernatant was harvested and stored at −40° C. until the amount of TNF-A was measured. The amount of TNF-α was determined using a commercially available ELISA kit.

In the next data set the test system is PLCγ. The data set is described as follows: Western blot analysis of activated site-specific phosphorylation of PLCγ in passively sensitized RBL-2H3 cells after antigen stimulation. To be noted: ten minutes after antigen stimulation. It counts as cell-based, rat. The method, then: as §1, §2

`c1ccc(C(OC2CCN(CCCNc3ccc4ncnn4n3)CC2)c2ccccc2)cc1` registered a melting point of 136 to 138 °C.

In turn, `Cc1c(C(C)(C)C(=O)O)nc2ccc(NCCCN3CCC(OC(c4ccccc4)c4ccccc4)CC3)nn12` yielded a melting point of 219 to 220 °C.

In the case of `O=C(O)/C=C/C(=O)O.c1ccc(C(OC2CCN(CCCCCCOc3ccc4nncn4n3)CC2)c2ccccc2)cc1`, the melting point was in the range of 144 to 146 °C.

`CC(C)(C)c1nnc2ccc(OCCCN3CCC(OC(c4ccccc4)c4ccccc4)CC3)nn12` registered a melting point of 125 to 127 °C.

As to `CCOC(=O)C(C)(C)n1nc2ccc(NCCCN3CCC(OC(c4ccccc4)c4ccccc4)CC3)nn2c1=O.Cl`, the melting point was found to be 162 °C.

Take `CC(C)(C)C(=O)OCOC(=O)C(C)(C)n1nc2ccc(NCCCN3CCC(OC(c4ccccc4)c4ccccc4)CC3)nn2c1=O`: the melting point is 162 °C.

With `CC(C)(C(=O)O)c1cn2nc(NCCCN3CCC(OC(c4ccccc4)c4ccccc4)CC3)ccc2n1`, the melting point lay within 205 to 206 °C.

The molecule `CCOC(=O)CNC(=O)c1cn2nc(NCCCN3CCC(OC(c4ccccc4)c4ccccc4)CC3)ccc2n1.Cl.Cl` showed a melting point of 205 °C.

For the molecule `CCOC(=O)C(C)(C)c1cn2nc(NCCCN3CCC(NC(c4ccccc4)c4ccccc4)CC3)ccc2n1`, the melting point fell in the range of 115 to 117 °C.

`c1ccc(C(OC2CCN(CCCCCCNc3ccc4nncn4n3)CC2)c2ccccc2)cc1` (hydrate or solvate) registered a melting point of 124 to 127 °C.

`CCOC(=O)c1nnc2ccc(NCCCN3CCC(OC(c4ccccc4)c4ccccc4)CC3)nn12` (hydrate or solvate) had a melting point of 129 to 133 °C.

`O=C(O)c1nnc2ccc(NCCCN3CCC(OC(c4ccccc4)c4ccccc4)CC3)nn12` (hydrate or solvate): the melting point was 102 to 104 °C.

Consider `O=c1[nH]nc2ccc(NCCCN3CCC(OC(c4ccccc4)c4ccccc4)CC3)nn12` (hydrate or solvate), for which the melting point is 156 to 170 °C.

Take `CC(C)(C(=O)O)n1nc2ccc(NCCCN3CCC(OC(c4ccccc4)c4ccccc4)CC3)nn2c1=O` (hydrate or solvate): the melting point lay within 181 to 185 °C.

For `CC(C)(C(=O)O)c1cn2nc(NCCCN3CCC(OC(c4ccccc4)c4ccccc4)CC3)ccc2n1.O.O` (hydrate or solvate) [Compound A, 2-[6-[3-[4-(diphenylmethoxy)piperidino]propylamino]imidazo[1,2-b]pyridazin-2-yl]-2-methylpropionic acid dihydrate], the melting point was in the range of 203 to 205 °C.

On to `CC(C)(C(=O)O)c1cn2nc(NCCCN3CCC(OC(c4ccccc4)c4ccccc4)CC3)ccc2n1.O.O` [Compound A, 2-[6-[3-[4-(diphenylmethoxy)piperidino]propylamino]imidazo[1,2-b]pyridazin-2-yl]-2-methylpropionic acid dihydrate], for which the “effect on the increase in the amount of TNF-α in ear tissue” value with TNF-α (0.1 to 10 mg/kg, one hour before DNFB) is listed as “inhibited the increase in the amount of TNF-α in a dose-dependent manner”. In addition, the “dose with significant inhibition of the increase in the amount of TNF-α” value with TNF-α (p<0.01 vs. control (Dunnett)) was at least 1 mg/kg. The “influence on activated site-specific phosphorylation of ERKs” value with ERKs is “no influence”. Further, in the data set on JNK (JNK1 and JNK2) (10^−5 to 10^−7 mol/l, ten minutes after antigen stimulation), the “effect on specific phosphorylation of JNK (JNK1 and JNK2)” value was “inhibited the specific phosphorylation of JNK (JNK1 and JNK2) in a dose-dependent manner”. The “selectivity for JNK activation among cascades activated depending on IgE” value with JNK (JNK1 and JNK2) (versus PLCγ, ERKs, p38MAPK in RBL-2H3 cells) is reported as “selectively inhibits the activation of JNK”. For the same molecule, the “expression amount of any other protein” value with RBL-2H3 cells is on record as “not influenced”. Besides, the “JNK activity of protein extract on c-Jun(1-89) substrate” value in the data set on JNK is reported as “inhibited depending on the concentration”. Besides, in the data set on p38MAPK, the “influence on activated site-specific phosphorylation of p38MAPK” value was “no influence”. In the data set on peritoneal mast cells, the “effect on antigen stimulation-induced release of TNF-α” value is “inhibited the antigen stimulation-induced release of TNF-α in a concentration-dependent manner”. For the same molecule, the “influence on activated site-specific phosphorylation of PLCγ” value in the data set on PLCγ is on record as “no influence”.
